Test results: the supplement of paper PMC8372320

Experiment: photocatalytic hydrogen evolution rate (per 5 mg catalyst); higher = more photocatalytic H2 evolution; extreme values may be limits of the assay
Conditions: catalyst mass (mg): 5; Pt cocatalyst (wt%): 3; sacrificial medium: triethylamine/methanol/water 1:1:1
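Note: aromatic molecules in triethylamine/methanol/water with Pt photoreduced in situ, irradiated 3 h under a 1 sun AM 1.5G solar simulator (350–1000 nm), H2 quantified by headspace gas chromatography; listed molecule itself used as the photocatalyst at 5 mg per vial.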

Compound | photocatalytic hydrogen evolution rate
C#Cc1ccc(Br)cc1 | 0 µmol/h
Nc1ccc(N)cc1 | 0 µmol/h
N#Cc1nc(N)c(N)nc1C#N | 0 µmol/h
COC(=O)c1ccc(B(O)O)cc1 | 0.0394 µmol/h
COC(=O)c1ccc2cc(B3OC(C)(C)C(C)(C)O3)ccc2c1 | 1.49 µmol/h
N#Cc1cscc1C#N | 0 µmol/h
c1ccc(N(c2ccccc2)c2cc(N(c3ccccc3)c3ccccc3)cc(N(c3ccccc3)c3ccccc3)c2)cc1 | 0 µmol/h
N#Cc1cc(N)cc(F)c1 | 0 µmol/h
Nc1ccccc1-c1ccccc1 | 0 µmol/h
N#Cc1csc(Br)n1 | 0 µmol/h
Nc1ccc(C(=O)O)cc1 | 0.059 µmol/h
CC(=O)c1cc(C(C)=O)cc(C(C)=O)c1 | 1.98 µmol/h
CN(C)c1ccncc1 | 0 µmol/h
N#Cc1ccc(F)cc1 | 0 µmol/h
Nc1cccc2ccccc12 | 0 µmol/h
O=C1N=C(c2cccs2)c2c(O)[nH]c(-c3cccs3)c21 | 0 µmol/h
c1ccc(-c2c3ccccc3c(-c3ccccc3)c3c(-c4ccccc4)c4ccccc4c(-c4ccccc4)c23)cc1 | 0.0539 µmol/h
COc1ccc(OC)cc1 | 0 µmol/h
Cc1cc(-c2ccc(N)c(C)c2)ccc1N | 0 µmol/h
O=Cc1ccc(-c2ccccc2)cc1 | 4.67 µmol/h
Nc1cc(Br)ccc1Br | 0 µmol/h
O=C1C(F)=C(F)C(=O)C(F)=C1F | 0 µmol/h
O=Cc1ccc(-c2cc(-c3ccc(C=O)cc3)c3ccc4c(-c5ccc(C=O)cc5)cc(-c5ccc(C=O)cc5)c5ccc2c3c54)cc1 | 3.19 µmol/h
CC(=O)c1ccc(C#N)cc1 | 5.7 µmol/h

Compound | photocatalytic hydrogen evolution rate
O=[N+]([O-])c1cc([N+](=O)[O-])c(F)cc1F | 0 µmol/h
N#Cc1ccc(N)cc1 | 0 µmol/h
Cc1c(C)c(C)c(C=O)c(C)c1C | 0.844 µmol/h
O=Cc1ccc(N(c2ccccc2)c2ccc(-c3ccc(N(c4ccccc4)c4ccc(C=O)cc4)cc3)cc2)cc1 | 0 µmol/h
O=C(O)c1ccc(-c2c3nc(c(-c4ccc(C(=O)O)cc4)c4ccc([nH]4)c(-c4ccc(C(=O)O)cc4)c4nc(c(-c5ccc(C(=O)O)cc5)c5ccc2[nH]5)C=C4)C=C3)cc1 | 2.56 µmol/h
COC(=O)c1cc(Br)oc1Br | 0 µmol/h
CC1(C)OB(c2cc(B3OC(C)(C)C(C)(C)O3)cc(B3OC(C)(C)C(C)(C)O3)c2)OC1(C)C | 0.0124 µmol/h
CC(C)(O)c1ccc(C(C)(C)O)cc1 | 0.00118 µmol/h
Nc1ccc(N)c(S(=O)(=O)O)c1 | 0 µmol/h
C#Cc1ccc(C#C)cc1 | 0 µmol/h
CN1CCN(c2ccc(C=O)cc2)CC1 | 0.409 µmol/h
O=C(O)c1c(C(=O)O)c(C(=O)O)c(C(=O)O)c(C(=O)O)c1C(=O)O | 0 µmol/h
Nc1ccc(-c2nc(-c3ccc(N)cc3)nc(-c3ccc(N)cc3)n2)cc1 | 0 µmol/h
O=C(O)Cc1ccccc1 | 0.0603 µmol/h
Nc1ccc(C(c2ccc(N)cc2)(c2ccc(N)cc2)c2ccc(N)cc2)cc1 | 0 µmol/h
c1cc2ccc3ccc4ccc5ccc6ccc1c1c2c3c4c5c61 | 0 µmol/h
CCOC(=O)c1ccc(C(=O)OCC)cc1 | 0 µmol/h
Cc1cc(C#N)ccc1C#N | 0 µmol/h
CNc1ccc(C#N)cc1 | 0 µmol/h
N#Cc1c(-n2c3ccccc3c3ccccc32)c(C#N)c(-n2c3ccccc3c3ccccc32)c(-n2c3ccccc3c3ccccc32)c1-n1c2ccccc2c2ccccc21 | 20.5 µmol/h
c1ccc2c(c1)-c1ccccc1C21c2ccccc2-c2ccccc21 | 0 µmol/h
C#Cc1ccc(C(=O)O)cc1 | 0 µmol/h
CC1(C)CC2(CC(C)(C)c3cc(O)c(O)cc32)c2cc(O)c(O)cc21 | 0 µmol/h
CCCCCCCCCCCCC1(CCCCCCCCCCCC)c2cc(B(O)O)ccc2-c2ccc(B(O)O)cc21 | 0.132 µmol/h

Compound | photocatalytic hydrogen evolution rate
N#Cc1ccc(C=O)cc1 | 0.136 µmol/h
Brc1ccc2c(c1)C1(c3cc(Br)ccc3-2)c2cc(Br)ccc2-c2ccc(Br)cc21 | 0.0511 µmol/h
Nc1nnc(Br)cc1Br | 0.0148 µmol/h
CC1(C)OB(c2ccc(-c3cccs3)s2)OC1(C)C | 0 µmol/h
Brc1ccc2ccc3c(Br)ccc4ccc1c2c43 | 0.16 µmol/h
OCCCCc1ccc2ccc3cccc4ccc1c2c34 | 0.855 µmol/h
N#Cc1cncc(Br)c1 | 0 µmol/h
O=C(O)c1cc(Br)c(C(=O)O)cc1Br | 0 µmol/h
N#Cc1cccc(C#N)n1 | 0 µmol/h
N#CC1=C(C#N)SC(C#N)=C(C#N)S1 | 0 µmol/h
N#Cc1cc(Br)c[nH]c1=O | 1.99 µmol/h
O=Cc1sc(Br)nc1Br | 0 µmol/h
CCOC(=O)c1cc(C(=O)OCC)cc(C(=O)OCC)c1 | 0.0434 µmol/h
N#Cc1ccc(/C=C/c2ccc(/C=C/c3ccc(C#N)cc3)cc2)cc1 | 0.411 µmol/h
Ic1ccc(I)cc1 | 0 µmol/h
c1ccc(-c2ccccc2)cc1 | 0 µmol/h
Nc1c(F)c(F)c(N)c(F)c1F | 0 µmol/h
O=C1NC(=O)c2ccc3c4ccc5c6c(ccc(c7ccc1c2c73)c64)C(=O)NC5=O | 0 µmol/h
N#Cc1c(F)c(F)c(Br)c(F)c1F | 0 µmol/h
COC(=O)c1ccc(C#N)cc1 | 0 µmol/h
O=C(O)c1ccc(-c2nc(-c3ccc(C(=O)O)cc3)nc(-c3ccc(C(=O)O)cc3)n2)cc1 | 0.201 µmol/h
N#Cc1c(-n2c3ccccc3c3ccccc32)c(-n2c3ccccc3c3ccccc32)c(C#N)c(-n2c3ccccc3c3ccccc32)c1-n1c2ccccc2c2ccccc21 | 1.6 µmol/h
CCCCCCC1(CCCCCC)c2cc(Br)ccc2-c2ccc(Br)cc21 | 0 µmol/h
Cc1cc(C=O)c(O)c(C=O)c1 | 7.62 µmol/h

Other lines, results leading:

photocatalytic hydrogen evolution rate | Compound
0.0996 µmol/h | O=C1C(c2ccccc2)=C(c2ccccc2)C(c2ccccc2)=C1c1ccccc1
0.0382 µmol/h | O=Cc1ccc(O)c(F)c1
3.11 µmol/h | O=Cc1ccc2ncccc2c1
0.0572 µmol/h | Brc1ccc2c3ccc(Br)cc3n(-c3ccccc3)c2c1
0 µmol/h | O=C(O)c1ccc(-c2ccccc2)cc1
0 µmol/h | Oc1ccc2ccccc2c1-c1c(O)ccc2ccccc12
0.736 µmol/h | O=C(C(=O)c1ccccc1)c1ccccc1
0.0301 µmol/h | N#Cc1cccc(-c2cccc(C#N)n2)n1
0 µmol/h | O=Cc1ccc(O)c(O)c1
0 µmol/h | Brc1ccc2cc(Br)ccc2c1
2.43 µmol/h | O=Cc1cccc(-c2ccccn2)c1
0 µmol/h | O=Cc1ccc(Cl)c(O)c1
0 µmol/h | O=Cc1cc(O)c(O)c(O)c1
0 µmol/h | Brc1cccc(Br)n1
0.0364 µmol/h | O=Cc1cncnc1
2.76 µmol/h | COc1ccc(B(O)O)cc1C=O
0 µmol/h | OC1c2ccccc2-c2ccccc21
1.5 µmol/h | O=Cc1ccc(-n2ccnc2)cc1
0 µmol/h | C(#Cc1ccccc1)c1ccccc1
25.2 µmol/h | O=C1OC2(c3cc(Cl)c(O)cc3Oc3cc(O)c(Cl)cc32)c2ccccc21
0.0145 µmol/h | O=Cc1ccc(C=O)cc1
0.022 µmol/h | c1ccc2c(c1)c1ccccc1c1ccccc21
0 µmol/h | COc1cc(C=O)cc(OC)c1O
0.0601 µmol/h | N#Cc1ccc(-c2ccc(C#N)nc2)cn1

photocatalytic hydrogen evolution rate | Compound
0 µmol/h | CC(O)c1ccc2ccccc2c1 (stereo not given)
2.06 µmol/h | O=Cc1c2ccccc2cc2ccccc12
0 µmol/h | OB(O)c1ccc(-c2ccc(B(O)O)cc2)cc1
0 µmol/h | c1ccc(Nc2ccccc2)cc1
0 µmol/h | c1ccc2c(c1)Cc1ccccc1-2
4.66 µmol/h | N#Cc1ccc(C(=O)c2ccc(C#N)cc2)cc1
0 µmol/h | O=C(O)c1c2ccccc2c(C(=O)O)c2ccccc12
0 µmol/h | N#Cc1cccnc1Br
0.0172 µmol/h | Cc1cc(C=O)ccc1O
0 µmol/h | N#Cc1ccc(C=O)cn1
8.19 µmol/h | O=Cc1ccc(C(=O)O)cc1O
0.173 µmol/h | O=Cc1ccc(N2CCCC2)cc1
0 µmol/h | Cc1ccc(N(c2ccccc2)c2ccccc2)cc1
0.0539 µmol/h | N[C@@H](Cc1ccccc1)C(=O)O
0 µmol/h | O=Cc1cc(O)c(O)cc1O
0 µmol/h | O=C1c2c(O)cccc2Cc2cccc(O)c21
1.25 µmol/h | c1cc2cccc3c4cccc5cccc(c(c1)c23)c54
0 µmol/h | Brc1cc(Br)cc(-c2ccccc2)c1
0.469 µmol/h | O=Cc1ncc[nH]1
0 µmol/h | O=C1c2ccccc2C(=O)c2c(Cl)cccc21
0.431 µmol/h | O=Cc1ccc(N2CCCCC2)cc1
0.146 µmol/h | O=C(/C=C/c1ccccc1)c1ccccc1
0 µmol/h | N#CCc1nc2ccccc2s1
0 µmol/h | c1ccc2c(c1)CCc1ccccc1N2
